Measurements: US20090209536A1, “AMINOQUINAZOLINE CANNABINOID RECEPTOR MODULATORS FOR TREATMENT OF DISEASE” (KALYPSYS, INC., priority 2007, published 2009)
Like-named read-outs stand apart in the source and are kept apart here.

How the values were obtained:
[1] = molecular target: T1, human cannabinoid receptor type 2 (Homo sapiens, UniProt P34972); assay: Human CB2 Radioligand Binding Assay; conditions: membranes from stably transfected CHO CB2 cells
T1 construct: expressed in transfected cells; membrane preparation
T1 sequence (P34972 whole entry): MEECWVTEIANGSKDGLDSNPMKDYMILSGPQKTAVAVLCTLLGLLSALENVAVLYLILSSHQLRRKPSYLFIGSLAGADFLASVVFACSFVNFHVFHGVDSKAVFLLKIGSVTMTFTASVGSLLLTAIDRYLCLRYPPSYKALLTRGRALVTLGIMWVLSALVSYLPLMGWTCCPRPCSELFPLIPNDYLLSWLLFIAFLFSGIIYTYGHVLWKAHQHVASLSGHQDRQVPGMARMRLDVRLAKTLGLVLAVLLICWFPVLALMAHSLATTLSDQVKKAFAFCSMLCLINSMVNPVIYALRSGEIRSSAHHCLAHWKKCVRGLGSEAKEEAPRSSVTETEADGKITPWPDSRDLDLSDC
How it was run: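 Test compounds (10 uM final, or dose-response) competed with [3H]CP-55,940, used at the Kd determined per membrane lot, for binding to stable human CB2-CHO membranes over 90 min at 30° C in pH 7.4 Tris/EGTA/MgCl2/BSA buffer. GF/C filtration then scintillation counting; 100 nM CP-55,940 defined 100% efficacy.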

[2] = molecular target: T2, human cannabinoid receptor type 1 (Homo sapiens, UniProt P21554); assay: Human CB1 Radioligand Binding Assay (basis of selectivity, CB2 vs. CB1); conditions: CB1: HEK 293 EBNA cells expressing human CB1; CB2: CHO CB2 membranes
T2 construct: purchased Perkin Elmer RBHCB1M; host or cells: HEK 293 EBNA cells
T2 sequence (P21554 whole entry): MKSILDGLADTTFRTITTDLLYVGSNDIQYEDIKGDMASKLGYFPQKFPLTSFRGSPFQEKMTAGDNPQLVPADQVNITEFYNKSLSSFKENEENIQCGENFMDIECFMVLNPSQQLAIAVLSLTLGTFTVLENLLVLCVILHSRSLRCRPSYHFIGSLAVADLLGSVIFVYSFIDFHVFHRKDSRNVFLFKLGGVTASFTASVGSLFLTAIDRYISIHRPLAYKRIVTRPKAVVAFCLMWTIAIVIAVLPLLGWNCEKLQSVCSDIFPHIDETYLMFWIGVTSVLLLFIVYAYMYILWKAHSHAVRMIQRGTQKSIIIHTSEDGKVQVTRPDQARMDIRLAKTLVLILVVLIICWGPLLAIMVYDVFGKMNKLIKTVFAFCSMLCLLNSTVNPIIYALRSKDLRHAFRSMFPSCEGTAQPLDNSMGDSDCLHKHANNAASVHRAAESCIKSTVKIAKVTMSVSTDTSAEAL
Description: 2. Human CB1 Radioligand Binding Assay
The incubation buffer was composed of 50 mM Tris-HCl pH 7.4, 2.5 mM EDTA, 5 mM MgCl2, 5.0 mg/ml fatty acid free BSA and the wash buffer was composed of 50 mM Tris-HCl pH 7.4, 2.5 mM EDTA, 5 mM MgCl2, 0.5 mg/ml fatty acid free BSA.

[3] = competition with [3H] CP-55,940, read-out: CB2 Ligand Binding Asssay EC50

SMILES | EC50 [1, 3] | Selectivity, CB2 vs. CB1 [2] | EC50 ([1]; CB2 Ligand Binding Asssay EC50, competition with [3H] CP-55,940)
Clc1ccccc1-c1nc(NCC23CC4CC(CC(C4)C2)C3)c2ccccc2n1 [Example 190, 2-(2-Chlorophenyl)-N-(1-adamanthylmethyl)quinazolin-4-amine] | > 1000 nM | − (− indicates ≦ 10−fold) | 
Clc1ccccc1-c1nc(NCCc2ccccn2)c2ccccc2n1 [Example 191, 2-(2-Chlorophenyl)-N-(2-(pyridine-2-yl)ethyl)quinazolin-4-amine] | > 1000 nM | − (− indicates ≦ 10−fold) | 
Clc1ccccc1-c1nc(NCCCN2CCOCC2)c2ccccc2n1 [Example 192, 2-(2-Chlorophenyl)-N-(3-morpholinopropyl)quinazolin-4-amine] | > 1000 nM | − (− indicates ≦ 10−fold) | 
Clc1ccccc1-c1nc(NCC2CCCCC2)c2ccccc2n1 [Example 193, 2-(2-Chlorophenyl)-N-(cyclohexylmethyl)quinazolin-4-amine] |  | − (− indicates ≦ 10−fold) | > 1000 nM
CN(CC1CCCCC1)c1nc(-c2ccccc2Cl)nc2ccccc12 [Example 194, 2-(2-Chlorophenyl)-N-(cyclohexylmethyl)-N-methylquinazolin-4-amine] | < 1000 nM | − (− indicates ≦ 10−fold) | 
FC(F)(F)c1ccc(Cc2nc(N3CCCCC3)c3ccccc3n2)cc1 [Example 195, 4-(Piperidin-1-yl)-2-(4-(trifluoromethyl)benzyl)quinazoline] | > 1000 nM | − (− indicates ≦ 10−fold) | 
CCOC(=O)N1CCN(c2nc(Cc3cccc(OC)c3)nc3ccccc23)CC1 [Example 196, Ethyl 4-(2-(3-Methoxybenzyl)quinazolin-4-yl)piperazine-1-carboxylate] | > 1000 nM | − (− indicates ≦ 10−fold) | 
Clc1nccc(N2CCN(c3nc(-c4ccccc4Cl)nc4ccccc34)CC2)n1 [Example 197, 2-(2-Chlorophenyl)-4-(4-(2-chloropyrimidin-4-yl)piperazin-1-yl)quinazoline] | < 1000 nM | + (+ indicates > 10−fold) | 
Clc1ccnc(N2CCN(c3nc(-c4ccccc4Cl)nc4ccccc34)CC2)n1 [Example 198] | > 1000 nM | − (− indicates ≦ 10−fold) | 
CC(=O)N1CCN(c2nc(-c3ccc(Cl)cc3)nc3ccccc23)CC1 [Example 199, 1-(4-(2-(4-Chlorophenyl)quinazolin-4-yl)piperazin-1-yl)ethanone] | > 1000 nM | − (− indicates ≦ 10−fold) | 
CCOC(=O)N1CCN(c2nc(-c3ccc(Cl)cc3)nc3ccccc23)CC1 [Example 200, Ethyl 4-(2-(4-chlorophenyl)quinazolin-4-yl)piperazine-1-carboxylate] | > 1000 nM | − (− indicates ≦ 10−fold) | 
CC(=O)N1CCN(c2nc(-c3ccc(C(C)(C)C)cc3)nc3ccccc23)CC1 [Example 201, 1-(4-(2-(4-tert-Butylphenyl)quinazolin-4-yl)piperazin-1-yl)ethanone] | < 1000 nM | + (+ indicates > 10−fold) | 
CC(=O)N1CCN(c2nc(-c3ccc(Cl)cc3Cl)nc3ccccc23)CC1 [Example 202, 1-(4-(2-(2,4-Dichlorophenyl)quinazolin-4-yl)piperazin-1-yl)ethanone] | < 1000 nM | − (− indicates ≦ 10−fold) | 
CCOC(=O)N1CCN(c2nc(-c3ccc(Cl)cc3Cl)nc3ccccc23)CC1 [Example 203, Ethyl 4-(2-(2,4-dichlorophenyl)quinazolin-4-yl)piperazine-1-carboxylate] | > 1000 nM | − (− indicates ≦ 10−fold) | 
FC(F)(F)Oc1ccc2nc(-c3ccccc3Cl)nc(N3CCSCC3)c2c1 [Example 204, 4-(2-(2-Chlorophenyl)-6-(trifluoromethoxy)quinazolin-4-yl)thiomorpholine] | < 1000 nM | − (− indicates ≦ 10−fold) | 
Clc1ccc2nc(-c3ccccc3Cl)nc(N3CCCC3)c2c1 [Example 205, 6-Chloro-2-(2-chlorophenyl)-4-(pyrrolidin-1-yl)quinazoline] | < 1000 nM | + (+ indicates > 10−fold) | 
CCOC(=O)N1CCN(c2nc(-c3ccccc3Cl)nc3ccc(Cl)cc23)CC1 [Example 206, Ethyl 4-(6-chloro-2-(2-chlorophenyl)quinazolin-4-yl)piperazine-1-carboxylate] | > 1000 nM | − (− indicates ≦ 10−fold) | 

SMILES | EC50 [1, 3] | Selectivity, CB2 vs. CB1 [2] | EC50 ([1]; CB2 Ligand Binding Asssay EC50, competition with [3H] CP-55,940)
Clc1ccc2nc(-c3ccccc3Cl)nc(N3CCSCC3)c2c1 [Example 207, 4-(6-Chloro-2-(2-chlorophenyl)quinazolin-4-yl)thiomorpholine] | < 1000 nM | − (− indicates ≦ 10−fold) | 
CN1CCN(c2nc(-c3ccccc3Cl)nc3ccc(Cl)cc23)CC1 [Example 208, 6-Chloro-2-(2-chlorophenyl)-4-(4-methylpiperazin-1-yl)quinazoline] | < 1000 nM | + (+ indicates > 10−fold) | 
Clc1ccc(-c2nc(N3CCCC3)c3cc(Cl)ccc3n2)cc1 [Example 209, 6-Chloro-2-(4-chlorophenyl)-4-(pyrrolidin-1-yl)quinazoline] | > 1000 nM | − (− indicates ≦ 10−fold) | 
Clc1ccc(-c2nc(N3CCSCC3)c3cc(Cl)ccc3n2)cc1 [Example 211, 4-(6-Chloro-2-(4-chlorophenyl)quinazolin-4-yl)thiomorpholine] | > 1000 nM | − (− indicates ≦ 10−fold) | 
CN1CCN(c2nc(-c3ccc(Cl)cc3)nc3ccc(Cl)cc23)CC1 [Example 212, 6-Chloro-2-(4-chlorophenyl)-4-(4-methylpiperazin-1-yl)quinazoline] | > 1000 nM | − (− indicates ≦ 10−fold) | 
CCOC(=O)N1CCN(c2nc(-c3ccccc3Cl)nc3ccc(OC)cc23)CC1 [Example 217, Ethyl 4-(2-(2-chlorophenyl)-6-methoxyquinazolin-4-yl)piperazine-1-carboxylate] | < 1000 nM | + (+ indicates > 10−fold) | 
CCOC(=O)N1CCN(c2nc(C3CCCCC3)nc3ccc(OC)cc23)CC1 [Example 218, Ethyl 4-(2-cyclohexyl-6-methoxyquinazolin-4-yl)piperazine-1-carboxylate] | > 1000 nM | − (− indicates ≦ 10−fold) | 
CCOC(=O)N1CCN(c2nc(-c3ccccc3Cl)nc3ccc(C(C)(C)C)cc23)CC1 [Example 219, Ethyl 4-(6-tert-butyl-2-(2-chlorophenyl)quinazolin-4-yl)piperazine-1-carboxylate] | < 1000 nM | + (+ indicates > 10−fold) | 
CCOC(=O)N1CCN(c2nc(-c3ccc(F)c(F)c3)nc3ccccc23)CC1 [Example 220, Ethyl 4-(2-(3,4-difluorophenyl)quinazolin-4-yl)piperazine-1-carboxylate] | > 1000 nM | − (− indicates ≦ 10−fold) | 
CCOC(=O)N1CCN(c2nc(C3CCCCC3)nc3ccc(Cl)cc23)CC1 [Example 221, Ethyl 4-(6-chloro-2-cyclohexylquinazolin-4-yl)piperazine-1-carboxylate] | < 1000 nM | + (+ indicates > 10−fold) | 
FC(F)(F)Oc1ccc2nc(-c3ccc(Cl)cc3)nc(N3CCCC3)c2c1 [Example 222, 2-(4-Chlorophenyl)-4-(pyrrolidin-1-yl)-6-(trifluoromethoxy)quinazoline] | < 1000 nM | − (− indicates ≦ 10−fold) | 
CCOC(=O)N1CCN(c2nc(-c3ccc(Cl)cc3)nc3ccc(OC(F)(F)F)cc23)CC1 [Example 223, Ethyl 4-(2-(4-chlorophenyl)-6-(trifluoromethoxy)quinazolin-4-yl)piperazine-1-carboxylate] | > 1000 nM | − (− indicates ≦ 10−fold) | 
FC(F)(F)Oc1ccc2nc(-c3ccc(Cl)cc3)nc(N3CCSCC3)c2c1 [Example 224, 4-(2-(4-Chlorophenyl)-6-(trifluoromethoxy)quinazolin-4-yl)thiomorpholine] | > 1000 nM | − (− indicates ≦ 10−fold) | 
CN1CCN(c2nc(-c3ccc(Cl)cc3)nc3ccc(OC(F)(F)F)cc23)CC1 [Example 225, 2-(4-Chlorophenyl)-4-(4-methylpiperazin-1-yl)-6-(trifluoromethoxy)quinazoline] | < 1000 nM | + (+ indicates > 10−fold) | 
COC(=O)N1CCN(c2nc(-c3ccccc3Cl)nc3ccccc23)CC1 [Example 226, Methyl 4-(2-(2-chlorophenyl)quinazolin-4-yl)piperazine-1-carboxylate] | < 1000 nM | + (+ indicates > 10−fold) | 
Clc1ccccc1-c1nc(N2CCCC2)c2cccc(Cl)c2n1 [Example 227, 8-Chloro-2-(2-chlorophenyl)-4-(pyrrolidin-1-yl)quinazoline] | < 1000 nM | − (− indicates ≦ 10−fold) | 
CN1CCN(c2nc(-c3ccccc3Cl)nc3c(Cl)cccc23)CC1 [Example 228, 8-Chloro-2-(2-chlorophenyl)-4-(4-methylpiperazin-1-yl)quinazoline] | > 1000 nM | − (− indicates ≦ 10−fold) | 
